From US9126999B2, “Tetrahydropyrazolopyrimidine compounds” (EISAI R&D MANAGEMENT CO., LTD., priority 2012, dated 2015)

Legend:
Human TLR7/8 = system: T1, Human TLR7/8; experiment: Human PBMC cell-based assay, RNA-Ig (SL4-Ig) stimulus, cytokine ELISA; conditions: Human PBMC IL-6 Inhibition (SL4-Ig Ligand); read-out: Human PBMC IC50
T1 construct: IC50; other: Hu PBMC; ligand RNA-Ig; analyte IL-6; analyte TNFα; ligand R848; IC50 against the RNA-Ig TLR7/8 stimulus; cytokine responses to RNA-Ig complexes in vitro; potency against the RNA-Ig TLR7/8 stimulus versus HCQ
Procedure: Briefly, 25 ml blood was diluted with 15 ml PBS (without Ca^2+, Mg^2+) in a 50 ml conical tube, and 12 ml Histopaque was underlaid using a spinal needle. Tubes were centrifuged for 45 minutes at 1200 rpm (350×g), and PBMC were collected from the buffy coat. Cells were then washed twice in PBS, and red blood cells were lysed by suspension in 5 ml ammonium chloride solution (1× Red Blood Cell Lysis Buffer, eBioscience) for 5 minutes at room temperature.
Antagonist compounds solubilized and serial diluted in 100% DMSO were added in triplicate to cells to yield a final concentration of 0.1% DMSO (v/v). Hydroxychloroquine (Acros Organics) solubilized and serial diluted in PBS was added in triplicate to cells. […] The resulting “RNA-Ig” stimulus was incubated at room temperature for 15-30 minutes before adding to cells. PBMC were incubated with the various TLR agonists for 20 hours at 37° C., 5% CO2. Cell culture supernatants were collected, and levels of various human cytokines were assessed as indicated by standard ELISA procedure according to the manufacturer's recommended protocol (BD Biosciences, Inc., San Diego, Calif.).

Mouse TLR7 [1] = molecular target: T2, Mouse TLR7 (Mus musculus, UniProt P58681); experiment: Mouse spleen cell-based assay, R848 stimulus, IL-6 ELISA; conditions: Mouse Splenocyte IL-6 Inhibition (R848 Ligand); read-out: Mouse Splenocyte IC50
T2 construct: endogenous in cells; host or cells: female BALB/c mice, in vivo
T2 sequence (P58681 27-1050): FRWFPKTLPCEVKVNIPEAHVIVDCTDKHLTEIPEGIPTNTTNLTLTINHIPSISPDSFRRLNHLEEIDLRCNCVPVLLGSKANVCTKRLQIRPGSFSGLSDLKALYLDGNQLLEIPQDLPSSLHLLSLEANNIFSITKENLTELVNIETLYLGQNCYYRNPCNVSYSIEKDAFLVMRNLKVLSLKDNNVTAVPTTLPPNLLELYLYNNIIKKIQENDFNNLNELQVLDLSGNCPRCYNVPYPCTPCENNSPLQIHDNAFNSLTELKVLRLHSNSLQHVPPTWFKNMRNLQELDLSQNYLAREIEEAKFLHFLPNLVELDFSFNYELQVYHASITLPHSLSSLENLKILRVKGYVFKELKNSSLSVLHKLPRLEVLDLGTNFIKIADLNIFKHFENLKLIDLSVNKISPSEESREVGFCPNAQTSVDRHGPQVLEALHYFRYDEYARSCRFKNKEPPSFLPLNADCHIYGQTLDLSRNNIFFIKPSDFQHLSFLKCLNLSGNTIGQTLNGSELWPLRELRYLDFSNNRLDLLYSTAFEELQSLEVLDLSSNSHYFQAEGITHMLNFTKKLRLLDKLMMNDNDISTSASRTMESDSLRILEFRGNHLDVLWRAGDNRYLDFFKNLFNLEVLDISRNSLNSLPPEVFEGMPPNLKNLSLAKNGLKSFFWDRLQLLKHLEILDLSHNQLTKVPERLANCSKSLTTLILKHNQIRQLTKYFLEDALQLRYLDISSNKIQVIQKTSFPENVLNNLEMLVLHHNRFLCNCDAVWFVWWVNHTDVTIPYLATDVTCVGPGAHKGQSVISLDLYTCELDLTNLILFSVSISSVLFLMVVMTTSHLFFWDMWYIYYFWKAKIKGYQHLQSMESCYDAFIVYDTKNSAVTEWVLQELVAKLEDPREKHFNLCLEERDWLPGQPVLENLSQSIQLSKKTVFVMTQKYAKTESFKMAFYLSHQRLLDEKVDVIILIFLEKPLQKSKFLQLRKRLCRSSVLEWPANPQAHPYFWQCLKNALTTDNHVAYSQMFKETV
Procedure: Spleens were harvested from female BALB/c mice (Jackson Labs, Bar Harbor, Me.) euthanized by CO2. A single cell suspension was obtained by passing spleens through a 40 μm nylon cell strainer. Cells were washed twice with 50 ml PBS (Mediatech, Inc., Manassas, Va.) and red blood cells were lysed in 5 ml RBC Lysis buffer (eBioscience, Inc., San Diego, Calif.) for 5 minutes at room temperature. Cells were washed twice more in PBS and finally resuspended in supplemented RPMI-1640 at 2.5×10^6 cells/ml. Cells were plated at 100 μl/well (2.5×10^5 cells/well) in 96-well tissue culture treated plates (Falcon). Serial dilutions of compounds solubilized in 100% DMSO were added in triplicate to cells to yield a final concentration of 0.1% DMSO. Cells were incubated with compound for 30 minutes at 37° C., 5% CO2 before adding 100 μl/well of 740 nM R848 (Resiquimod; GLSynthesis, Worcester, Mass.) in complete media for a final concentration of 370 nM R848. Cells were incubated for 20 hours at 37° C., 5% CO2. Culture supernatants were collected, and levels of IL-6 were assessed by standard ELISA procedure according to the manufacturer's recommended protocol (BD Biosciences, Inc., San Diego, Calif.).

Mouse TLR7 [2] = molecular target: T2, Mouse TLR7; experiment: Short-term in vivo (STIV) assay: plasma IL-6 after s.c. R848
Procedure: Figure Legend: Female BALB/c mice were dosed by oral gavage with Vehicle alone (0.5% aqueous methyl-cellulose) or compound ER-892887 formulated in Vehicle at 100 mg/kg or 300 mg/kg. At 13 or 24 hours following oral dosing, mice were injected subcutaneously with 15 ug R848 to stimulate TLR7. Blood plasma was collected by cardiac puncture, and the IL-6 level at 1.5 hours after TLR7 stimulation was then assessed by standard ELISA procedure. Percent suppression indicated is relative to IL-6 induction following Vehicle control dosing. Statistical significance was determined by Mann-Whitney test.
To assess compound potency in vivo against mouse TLR7, a short-term in vivo (STIV) assay was utilized. Briefly, mice were orally dosed with compounds and at various time points afterwards were injected subcutaneously with agonist R848 to stimulate TLR7. The plasma IL-6 level following R848 stimulation was then measured by ELISA to assess compound potency and duration-of-action. […] Therefore, the activity of compounds in the STIV assay can be confidently attributed to their modulation of the TLR7 pathway. A single oral dose of ER-892887 at 300 mg/kg suppresses the R848/TLR7/IL-6 pathway in vivo by 80-90% for at least 24 hours (see FIG. 1).
Six to eight week old female BALB/c mice (Jackson Labs, Bar Harbor, Me.) were dosed by oral gavage in 200 ul volume with antagonist compounds formulated in 0.5% aqueous methyl-cellulose (Sigma, St. Louis, Mo.). At various time points afterwards, mice were injected subcutaneously (s.c.) in 100 ul volume with 15 ug R848 (Resiquimod; GLSynthesis, Worcester, Mass.) to stimulate TLR7. Blood plasma was collected by cardiac puncture, and levels of IL-6 at 1.5 hours after TLR7 stimulation were then assessed by standard ELISA procedure according to the manufacturer's recommended protocol (R&D Systems).

[3] = time point 6 hr, dose 33 mg/kg oral
[4] = time point 6 hr, dose 100 mg/kg oral
[5] = time point 6 hr, dose 300 mg/kg oral
[6] = time point 13 hr, dose 33 mg/kg oral
[7] = time point 13 hr, dose 100 mg/kg oral
[8] = time point 13 hr, dose 300 mg/kg oral
[9] = time point 24 hr, dose 100 mg/kg oral
[10] = time point 24 hr, dose 300 mg/kg oral

“5-(3,4-dimethoxyphenyl)-2-(6-methyl-1,2,3,6-tetrahydropyridin-4-yl)-7-(trifluoromethyl)-4,5,6,7-tetrahydropyrazolo[1,5-a]pyrimidine hydrochloride and 5-(3,4-dimethoxyphenyl)-2-(2-methyl-1,2,3,6-tetrahydropyridin-4-yl)-7-(trifluoromethyl)-4,5,6,7-tetrahydropyrazolo[1,5-a]pyrimidine hydrochloride [ER-896993]” was tested, and the IC50 (Human TLR7/8) was 38 nM.

Compound COc1ccc(C2CC(C(F)F)n3nc(-c4ccc(C(=O)N5CCNCC5)cc4)cc3N2)cc1OC (racemic) [ER-894466] has an IC50 (Human TLR7/8) of 43 nM and an IC50 (Mouse TLR7 [1]) of 420 nM.

For COc1ccc([C@@H]2C[C@H](C(F)(F)F)n3nc(C4CCNCC4)cc3N2)cc1OC [ER-885681], the IC50 (Human TLR7/8) was 173 nM, the “% Suppression vs. Vehicle” value (Mouse TLR7 [2]; time point 3 hr, dose 33 mg/kg oral) was 90% and the “% Suppression vs. Vehicle” value (Mouse TLR7 [2]; time point 3 hr, dose 100 mg/kg oral) was 98%. For the same compound, the “% Suppression vs. Vehicle” value (Mouse TLR7 [2]; time point 3 hr, dose 300 mg/kg oral) was 99%, the “% Suppression vs. Vehicle” value (Mouse TLR7 [2]; [3]) was 42% and the “% Suppression vs. Vehicle” value (Mouse TLR7 [2]; [4]) was 81%. The “% Suppression vs. Vehicle” value (Mouse TLR7 [2]; [5]) was 96%, the “% Suppression vs. Vehicle” value (Mouse TLR7 [2]; [6]) was 0% and the “% Suppression vs. Vehicle” value (Mouse TLR7 [2]; [7]) was 7%. The “% Suppression vs. Vehicle” value (Mouse TLR7 [2]; [8]) was 50%.

In the case of COc1ccc([C@H]2C[C@@H](C(F)(F)F)n3nc(C4CCNCC4)cc3N2)cc1OC [ER-885682], the IC50 (Human TLR7/8) is reported as 357 nM.

COc1ccc(C2CC(C(F)(F)F)n3nc(C4CCNCC4)cc3N2)cc1OC (centres unmarked) [ER-887084] gave an IC50 (Human TLR7/8) of 101 nM.

Compound Cc1nn(C)cc1[C@@H]1C[C@H](C(F)(F)F)n2nc(-c3ccc4nn(C)cc4c3)cc2N1 [ER-893990] has an IC50 (Human TLR7/8) of 4460 nM and an IC50 (Mouse TLR7 [1]) of 3920 nM.

With COc1ccc([C@@H]2C[C@H](C(F)F)n3nc(-c4ccc(C(=O)N5CCNCC5)cc4)cc3N2)cc1OC [ER-895302] the IC50 (Human TLR7/8) was 25 nM, the IC50 (Mouse TLR7 [1]) was 120 nM and the “% Suppression vs. Vehicle” value (Mouse TLR7 [2]; [3]) was 93%. The “% Suppression vs. Vehicle” value (Mouse TLR7 [2]; [4]) was 99%, the “% Suppression vs. Vehicle” value (Mouse TLR7 [2]; [5]) was 99% and the “% Suppression vs. Vehicle” value (Mouse TLR7 [2]; [6]) was 14%. For the same compound, the “% Suppression vs. Vehicle” value (Mouse TLR7 [2]; [7]) was 16%, the “% Suppression vs. Vehicle” value (Mouse TLR7 [2]; [8]) was 91% and the “% Suppression vs. Vehicle” value (Mouse TLR7 [2]; time point 24 hr, dose 33 mg/kg oral) was 30%. For the same compound, the “% Suppression vs. Vehicle” value (Mouse TLR7 [2]; [9]) was 0% and the “% Suppression vs. Vehicle” value (Mouse TLR7 [2]; [10]) was 37%.

With COc1ccc([C@H]2C[C@@H](C(F)F)n3nc(-c4ccc(C(=O)N5CCNCC5)cc4)cc3N2)cc1OC [ER-895303] the IC50 (Human TLR7/8) was 23 nM, the IC50 (Mouse TLR7 [1]) was 270 nM and the “% Suppression vs. Vehicle” value (Mouse TLR7 [2]; [3]) was 92%. For the same compound, the “% Suppression vs. Vehicle” value (Mouse TLR7 [2]; [6]) was 0%, the “% Suppression vs. Vehicle” value (Mouse TLR7 [2]; [7]) was 18% and the “% Suppression vs. Vehicle” value (Mouse TLR7 [2]; [8]) was 90%. For the same compound, the “% Suppression vs. Vehicle” value (Mouse TLR7 [2]; [9]) was 0% and the “% Suppression vs. Vehicle” value (Mouse TLR7 [2]; [10]) was 60%.

With COc1ccc(C2CC(C(F)(F)F)n3nc(-c4ccc(C(=O)NC5CCNC5)nc4)cc3N2)cc1OC (centres unmarked) [ER-895809] the IC50 (Human TLR7/8) was 21 nM.

For COc1ccc(C2CC(C(F)(F)F)n3nc(-c4ccc(C(=O)NC5CCNC5)nc4)cc3N2)cc1OC (centres unmarked) [ER-895810], the IC50 (Human TLR7/8) was 27 nM.

COc1ccc(C2CC(C(F)(F)F)n3nc(-c4cccc(C(=O)NC5CCNC5)c4)cc3N2)cc1OC (centres unmarked) [ER-895811] gave an IC50 (Human TLR7/8) of 111 nM.

Work on COc1ccc(C2CC(C(F)(F)F)n3nc(-c4ccc(C(=O)N5CCNCC5)nc4)cc3N2)cc1OC (centres unmarked) [ER-896133] yielded an IC50 (Human TLR7/8) of 64 nM.

Compound COc1ccc(C2CC(C(F)(F)F)n3nc(-c4ccc(C(=O)NC5CCNCC5)nc4)cc3N2)cc1OC (centres unmarked) [ER-896134] has an IC50 (Human TLR7/8) of 12 nM.

For COc1ccc(C2CC(C(F)(F)F)n3nc(-c4ccc(C(=O)NC5CCCNC5)nc4)cc3N2)cc1OC (centres unmarked) [ER-896135], the IC50 (Human TLR7/8) was 18 nM.

In the case of COc1ccc(C2CC(C(F)(F)F)n3nc(-c4cccc(C(=O)N5CCNCC5)c4)cc3N2)cc1OC (centres unmarked) [ER-896388], the IC50 (Human TLR7/8) is reported as 122 nM.

In the case of COc1ccc(C2CC(C(F)(F)F)n3nc(C(=O)N4CCNCC4)cc3N2)cc1OC (centres unmarked) [ER-896452], the IC50 (Human TLR7/8) is reported as 49 nM.
